From ChEMBL document CHEMBL1201862, “PubChem BioAssay data set” (2004)
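These data come from cells grown in 96-well plates and exposed to compound for 48 hours at five concentrations. The concentration for 50% growth inhibition is given as GI50.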 The source made the active and inactive calls. Rule as the data show it: active = GI50 up to about 1.1 µM and inactive = higher.

How the values were obtained:
Experiment in all cases: DTP human tumour cell line panel, 48 h
[1] = tested on: A498
[2] = tested on: Malme-3M
[3] = tested on: TK-10
[4] = tested on: HCT-116
[5] = tested on: BT-549
[6] = tested on: SK-MEL-5
[7] = tested on: RPMI-8226
[8] = tested on: SF-268
[9] = tested on: DU-145
[10] = tested on: NCI-H522
[11] = tested on: KM12
[12] = tested on: NCI/ADR-RES
[13] = tested on: UACC-62
[14] = tested on: UO-31
[15] = tested on: EKVX
[16] = tested on: 786-0
[17] = tested on: MDA-MB-435
[18] = tested on: HOP-62
[19] = tested on: T47D

COc1cc(=O)n2c3ccccc3n(C)c2c1C#N
GI50 [1]: > 100 µM (inactive)
GI50 [2]: > 100 µM (inactive)
GI50 [3]: > 100 µM (inactive)
GI50 [4]: 43.8 µM (inactive)
GI50 [5]: > 100 µM (inactive)
GI50 [6]: > 100 µM (inactive)
GI50 [7]: > 100 µM (inactive)
GI50 [8]: > 100 µM (inactive)
GI50 [9]: > 100 µM (inactive)
GI50 [10]: > 100 µM (inactive)
GI50 [11]: > 100 µM (inactive)
GI50 [12]: > 100 µM (inactive)
GI50 [13]: > 100 µM (inactive)
GI50 [14]: > 100 µM (inactive)
GI50 [15]: > 100 µM (inactive)
GI50 [16]: > 100 µM (inactive)
GI50 [17]: > 100 µM (inactive)
GI50 [18]: > 100 µM (inactive)

CCN(CC)C(=O)CCCCCCCCC1CO1 (centres undefined)
GI50 [1]: > 100 µM (inactive)
GI50 [2]: 81.3 µM (inactive)
GI50 [3]: > 100 µM (inactive)
GI50 [4]: > 100 µM (inactive)
GI50 [6]: > 100 µM (inactive)
GI50 [7]: > 100 µM (inactive)
GI50 [8]: > 100 µM (inactive)
GI50 [9]: > 100 µM (inactive)
GI50 [10]: > 100 µM (inactive)
GI50 [11]: > 100 µM (inactive)
GI50 [12]: > 100 µM (inactive)
GI50 [13]: > 100 µM (inactive)
GI50 [14]: > 100 µM (inactive)
GI50 [15]: > 100 µM (inactive)
GI50 [16]: > 100 µM (inactive)
GI50 [17]: > 100 µM (inactive)
GI50 [18]: > 100 µM (inactive)

COc1cc2c(cc1OC)[C@@H]1[C@H](C#N)C(=O)C(C)(C)N1CC2
GI50 [1]: > 100 µM (inactive)
GI50 [2]: > 100 µM (inactive)
GI50 [3]: > 100 µM (inactive)
GI50 [4]: > 100 µM (inactive)
GI50 [5]: > 100 µM (inactive)
GI50 [6]: > 100 µM (inactive)
GI50 [7]: 53.7 µM (inactive)
GI50 [9]: > 100 µM (inactive)
GI50 [10]: > 100 µM (inactive)
GI50 [11]: > 100 µM (inactive)
GI50 [12]: > 100 µM (inactive)
GI50 [13]: > 100 µM (inactive)
GI50 [14]: > 100 µM (inactive)
GI50 [15]: > 100 µM (inactive)
GI50 [16]: > 100 µM (inactive)
GI50 [17]: > 100 µM (inactive)

COC(=O)CSc1nc2[nH]c(SC)c(C(N)=O)c2c(=O)n1-c1ccccc1
GI50 [2]: > 10 µM (inactive)
GI50 [3]: > 10 µM (inactive)
GI50 [6]: > 10 µM (inactive)
GI50 [19]: > 10 µM (inactive)
GI50 [7]: > 10 µM (inactive)
GI50 [8]: > 10 µM (inactive)
GI50 [9]: > 10 µM (inactive)
GI50 [11]: > 10 µM (inactive)
GI50 [13]: > 10 µM (inactive)
GI50 [15]: > 10 µM (inactive)
GI50 [16]: > 10 µM (inactive)
GI50 [17]: > 10 µM (inactive)
GI50 [18]: > 10 µM (inactive)

O=C1NC2=NN=C(c3ccc(Br)cc3)CN2NC12c1ccccc1-c1ccccc12
GI50 [1]: > 100 µM (inactive)
GI50 [2]: > 100 µM (inactive)
GI50 [3]: > 100 µM (inactive)
GI50 [4]: > 100 µM (inactive)
GI50 [5]: > 100 µM (inactive)
GI50 [6]: > 100 µM (inactive)
GI50 [8]: > 100 µM (inactive)
GI50 [9]: > 100 µM (inactive)
GI50 [10]: > 100 µM (inactive)
GI50 [12]: > 100 µM (inactive)
GI50 [13]: > 100 µM (inactive)
GI50 [14]: > 100 µM (inactive)
GI50 [15]: > 100 µM (inactive)
GI50 [16]: > 100 µM (inactive)
GI50 [17]: > 100 µM (inactive)
GI50 [18]: > 100 µM (inactive)

CCOP(=O)(Nc1ccc(-c2ccc(N)cc2)cc1)OCC
GI50 [1]: > 100 µM (inactive)
GI50 [2]: > 100 µM (inactive)
GI50 [3]: > 100 µM (inactive)
GI50 [4]: 99.8 µM (inactive)
GI50 [5]: > 100 µM (inactive)
GI50 [6]: > 100 µM (inactive)
GI50 [7]: > 100 µM (inactive)
GI50 [8]: > 100 µM (inactive)
GI50 [9]: > 100 µM (inactive)
GI50 [10]: > 100 µM (inactive)
GI50 [11]: > 100 µM (inactive)
GI50 [12]: > 100 µM (inactive)
GI50 [13]: > 100 µM (inactive)
GI50 [14]: > 100 µM (inactive)
GI50 [15]: 38.9 µM (inactive)
GI50 [16]: > 100 µM (inactive)
GI50 [17]: > 100 µM (inactive)
GI50 [18]: 89.5 µM (inactive)

O=S1(=O)c2ccccc2Oc2ccc(C(/C=N/O)=N/O)cc21
GI50 [2]: 0.132 µM (active)
GI50 [3]: 0.155 µM (active)
GI50 [4]: 43.7 µM (inactive)
GI50 [19]: 9.08 µM (inactive)
GI50 [7]: 19.1 µM (inactive)
GI50 [8]: 30.1 µM (inactive)
GI50 [9]: 11.2 µM (inactive)
GI50 [10]: 12.1 µM (inactive)
GI50 [11]: 22 µM (inactive)
GI50 [12]: 17.4 µM (inactive)
GI50 [13]: 71.3 µM (inactive)
GI50 [14]: 24 µM (inactive)
GI50 [15]: 7.71 µM (inactive)
GI50 [16]: 46.1 µM (inactive)
GI50 [17]: 17.5 µM (inactive)
GI50 [18]: 65.5 µM (inactive)
